Legend:
Assay type in all cases: cell-based
C. albicans = assay: Full AET Challenge Test; settings: Candida albicans; summary of Examples 1 and 2
P. aeruginosa = assay: Full AET Challenge Test; settings: Pseudomonas aeruginosa; summary of Examples 1 and 2
S. haemolyticus = assay: Challenge test (Example 1); settings: Staphylococcus haemolyticus; summary of Examples 1 and 2
M. luteus = assay: Full AET Challenge Test; settings: Micrococcus Luteus; summary of Examples 1 and 2
A. brasiliensis = assay: Full AET Challenge Test; settings: Aspergillus brasiliensis; summary of Examples 1 and 2
S. aureus = assay: Full AET Challenge Test; settings: Staphylococcus aureus; summary of Examples 1 and 2
E. coli = assay: Full AET Challenge Test; settings: Escherichia coli; summary of Examples 1 and 2

## CN[C@]1(c2ccccc2Cl)CCCCC1=O.Cl [S-ketamine hydrochloride, (S)-2-(2-chlorophenyl)-2-(methylamino)cyclohexanone hydrochloride]
C. albicans
  antimicrobial properties (summary in words): strong antimicrobial properties
P. aeruginosa
  antimicrobial properties (summary in words): strong antimicrobial properties
S. haemolyticus
  antimicrobial properties (summary in words): strong antimicrobial properties
M. luteus
  antimicrobial properties (summary in words): strong antimicrobial properties
A. brasiliensis
  antimicrobial properties (summary in words): some inhibitory activity
S. aureus
  antimicrobial properties (summary in words): strong antimicrobial properties
E. coli
  antimicrobial properties (summary in words): strong antimicrobial properties

Source: patent US11446260B2, “Pharmaceutical composition of S-ketamine hydrochloride” (Janssen Pharmaceutica NV, priority 2013, dated 2022)
